Values of other authors in US12420242B1 (KING SAUD UNIVERSITY, priority 2025, dated 2025).
Converted amounts (≈) assume the structure as drawn. Where two headings read alike, the source gives them in different places.

How the values were obtained:
[1] = not given; remark: listed apart in the source

Row | Density (Table 1) | Density | Structure (SMILES) | solubility in water [1] | solubility in water ([1]; Table 1)
1 | 1.05 g · cm^−3 | 1.05 g/mL | c1ccsc1 [thiophene] |  | 
2 | 1.00 g · cm^−3 | 1.0 g/mL | O [water] |  | 

Row | Structure (SMILES) | Density (Table 1) | Density | solubility in water [1] | solubility in water ([1]; Table 1)
3 | CCCCCCC [n-heptane] | 0.68 g · cm^−3 |  | 2 µg/mL (≈ 20 µM) | 2 µg/mL (≈ 20 µM)
